From ChEMBL document CHEMBL4130372, “The antitrypanosomal and antitubercular activity of some nitro(triazole/imidazole)-based aromatic amines” (Eur J Med Chem, 2017)
≈ marks a conversion by molar mass, not a printed value.

How the values were obtained:
Type in all cases: functional
[1] = system: Mycobacterium tuberculosis; assay: Antitubercular activity against Mycobacterium tuberculosis INH-R1 harboring katG Y155 truncated mutant after 5 days by fluorescence-based assay
[2] = system: Mycobacterium tuberculosis; assay: Antitubercular activity against Mycobacterium tuberculosis RIF-R1 harboring rpoB S522L mutant after 5 days by fluorescence-based assay
[3] = system: Mycobacterium tuberculosis; assay: Antitubercular activity against Mycobacterium tuberculosis FQ-R1 harboring gyrB D94N mutant after 5 days by fluorescence-based assay

Compound	MIC [1] [µM]	MIC [2] [µM]	MIC [3] [µM]
O=[N+]([O-])c1ncn(CCCCNc2ncnc3ccccc23)n1	200 (≈ 62.7 µg/mL)	>200	>200
O=[N+]([O-])c1nccn1CCCCNc1ccnc2c(Cl)cccc12	>200	>200	>200
NNC(=O)c1ccncc1 [ISONIAZID]	>200	0.31 (≈ 0.0425 µg/mL)	0.35 (≈ 0.048 µg/mL)
C[C@H]1COc2c(N3CCN(C)CC3)c(F)cc3c(=O)c(C(=O)O)cn1c23.C[C@H]1COc2c(N3CCN(C)CC3)c(F)cc3c(=O)c(C(=O)O)cn1c23.O [LEVOFLOXACIN]	1.1	0.85	14
CO[C@H]1/C=C/O[C@@]2(C)Oc3c(C)c(O)c4c(O)c(c(/C=N/N5CCN(C)CC5)c(O)c4c3C2=O)NC(=O)/C(C)=C\C=C\[C@H](C)[C@H](O)[C@@H](C)[C@@H](O)[C@@H](C)[C@H](OC(C)=O)[C@@H]1C [RIFAMPIN]	0.012 (≈ 0.00988 µg/mL)	7.2 (≈ 5.93 µg/mL)	>0.04
